The source of these data is publication PMC5943490, “Altered Expression of the Malate-Permeable Anion Channel OsALMT4 Reduces the Growth of Rice Under Low Radiance” (Frontiers in Plant Science, 2018).

Assay [1] concerns the target T1, OsALMT4 (Oryza sativa, UniProt Q0JPI1).
T1 construct: gene Os01g0221600; full-length, constitutively over-expressed in transgenic rice (homozygous line OX5)
T1 sequence (Q0JPI1 1-524): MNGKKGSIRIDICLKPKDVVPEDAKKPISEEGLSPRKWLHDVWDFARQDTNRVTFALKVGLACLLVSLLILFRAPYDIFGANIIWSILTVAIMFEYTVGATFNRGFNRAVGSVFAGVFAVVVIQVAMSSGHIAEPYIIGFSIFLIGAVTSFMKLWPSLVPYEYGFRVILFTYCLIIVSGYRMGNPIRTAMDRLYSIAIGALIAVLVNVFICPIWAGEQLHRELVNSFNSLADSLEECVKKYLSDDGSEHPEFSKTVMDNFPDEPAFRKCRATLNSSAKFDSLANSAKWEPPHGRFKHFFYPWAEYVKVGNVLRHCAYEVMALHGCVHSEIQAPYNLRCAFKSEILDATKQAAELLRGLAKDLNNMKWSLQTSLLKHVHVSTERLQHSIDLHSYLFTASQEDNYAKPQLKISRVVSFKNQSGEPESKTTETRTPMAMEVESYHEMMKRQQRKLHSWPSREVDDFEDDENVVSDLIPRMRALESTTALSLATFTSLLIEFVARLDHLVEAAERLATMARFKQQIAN
Put plainly: malate efflux from intact OX5 seedlings, concentration series. The settings on record: read-out: Ki (half maximum inhibition).

The target in assay [2] is T1, OsALMT4. The assay is described as follows: malate efflux from intact OX5 and OX5_null seedlings. The settings on record: pH 5.6; transported anion, stereo not told.
Assay [3] addresses T1, OsALMT4. Put plainly: malate efflux from intact OX5 seedlings. The settings on record: read-out: malate efflux, % of control at 100 μM.

As for `O=C(O)c1ccccc1O` [SA, salicylic acid], the IC50 at OsALMT4 [1] came to 25 µM.

Turning to `O=C(O)C[C@H](O)C(=O)O` [malate], at OsALMT4 [2], the “malate efflux from intact OX5 and OX5_null seedlings” value is recorded as “SA treatment effectively inhibited malate efflux via OsALMT4 in the transgenic OX lines”.

For the molecule `O=C(O)c1cccnc1Nc1cccc(C(F)(F)F)c1` [niflumate], the remaining activity at 100 µM at OsALMT4 [3] is under 20%.
